Measurements from patent US20120095036A1, “NOVEL SUBSTITUTED INDAZOLE AND AZA-INDAZOLE DERIVATIVES AS GAMMA SECRETASE MODULATORS” (priority 2009, published 2012).

Key:
[1] = tested on: Notch-processing activity of the γ-secretase-complex; assay: Notch cell-free assay (NICD production from recombinant Notch substrate N99); format: biochemical, mouse; details: 1 nM of a test compound, 37° C. for 6 to 22 h, western blotting
Procedure: The Notch transmembrane domain is cleaved by gamma secretase to release Notch Intracellular C-terminal Domain (NICD).
To monitor the effect of compounds on NICD production, a recombinant Notch substrate (N99) was prepared. The Notch substrate, comprised of mouse Notch fragment (V1711-E1809), an N-terminal methionine and a C-terminal FLAG sequence ([…]), was expressed in E. coli and purified on a column containing an anti-FLAG M2 affinity matrix.
A typical Notch cell-free assay consisted of 0.3-0.5 nM Notch substrate, an enriched preparation of gamma secretase and 1 nM of a test compound (compound 45 of the present invention). Controls included a gamma secretase inhibitor (GSI), such as (2S)-N-[2-(3,5-difluorophenyl)acetyl]-L-alanyl-2-phenyl-glycine 1,1-dimethylethyl ester (DAPT) or (2S)-2-hydroxy-3-methyl-N-[(1S)-1-methyl-2-oxo-2-[[(1S)-2,3,4,5-tetrahydro-3-methyl-2-oxo-1H-3-benzazepin-1-yl]amino]ethyl]-butanamide (Semagacestat), and DMSO, the final concentration of DMSO being 1%. Recombinant Notch substrate was pre-treated with 17 μM DTT (1,4-dithiothreitol) and 0.02% SDS (Sodium Dodecyl Sulfate) and heated at 65° C. for 10 min. The mixture of substrate, gamma secretase and compound/DMSO was incubated at 37° C. for 6 to 22 hours (h). Six-hour incubation was sufficient to produce the maximal amount of NICD and the cleaved product remained stable for an additional 16 h. Reaction products were processed for SDS PAGE (Sodium Dodecyl Sulfate—Poly Acrylamide Gel Electrophoresis) and western blotting. Blots were probed with an anti-Flag M2 antibody, followed by LI-COR infrared secondary antibody, and analyzed with the Odyssey Infrared Imaging System (LI-COR® Biosciences).

Aβtotal [2] = assay: Method 2: Aβtotal Alphalisa on supernatant of SKNBE2 cells carrying APP 695 wild type; format: cell-based; details: Homo sapiens, SKNBE2 cells APP 695 wild type, overnight
How it was run: (§1)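 SKNBE2 cells expressing wild-type APP695 (10^4/well) were incubated overnight at 37 °C with compound at several concentrations. Secreted Aβ42 (C-terminal/N-terminal antibody pair) and Aβtotal (N-terminal/4G8 pair) were measured by AlphaLISA in the supernatant. IC50 values came from 4-parameter fits of percent of untreated control.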

Aβtotal [3] = assay: In vivo efficacy: Aβtotal in brain (ELISA); parameters: species or system mouse; details: brain soluble fraction; typical protocol: single oral dose, overnight fasted animals, after four hours
Text: (§2) To determine whether acute administration of an Aβ42 lowering agent would reduce Aβ42 levels in vivo, non-transgenic rodents, e.g. mice or rats were used. Alternatively, two to three month old Tg2576 mice expressing APP695 containing the “Swedish” variant can be used or a transgenic mouse model developed by Dr. Fred Van Leuven (K.U.Leuven, Belgium) and co-workers, with neuron-specific expression of a clinical mutant of the human amyloid precursor protein [V717I] (Moechars et al., 1999 J. Biol. Chem. 274, 6483). Young transgenic mice have high levels of Aβ in the brain but no detectable Aβ deposition. At approximately 6-8 months of age, the transgenic mice start to display spontaneous, progressive accumulation of β-amyloid (A13) in the brain, eventually resulting in amyloid plaques within the subiculum, hippocampus and cortex. Animals treated with the Aβ42 lowering agent were examined and compared to those untreated or treated with vehicle and brain levels of soluble Aβ42 and total Aβ would be quantitated by standard techniques, for example, using ELISA. Treatment periods varied from hours to days and were adjusted based on the results of the Aβ42 lowering once a time course of onset of effect could be established.
(§3) A typical protocol for measuring Aβ42 lowering in vivo is shown but it is only one of many variations that could be used to optimize the levels of detectable Aβ. For example, Aβ42 lowering compounds were formulated in 20% of Captisol® (a sulfobutyl ether of β-cyclodextrin) in water or 20% hydroxypropyl β cyclodextrin. The Aβ42 lowering agents were administered as a single oral dose or by any acceptable route of administration to overnight fasted animals. After four hours, the animals were sacrificed and Aβ42 levels were analysed.
(§4) Blood was collected by decapitation and exsanguinations in EDTA-treated collection tubes. Blood was centrifuged at 1900 g for 10 minutes (min) at 4° C. and the plasma recovered and flash frozen for later analysis. The brain was removed from the cranium and hindbrain. The cerebellum was removed and the left and right hemisphere were separated. The left hemisphere was stored at −18° C. for quantitative analysis of test compound levels. The right hemisphere was rinsed with phosphate-buffered saline (PBS) buffer and immediately frozen on dry ice and stored at −80° C. until homogenization for biochemical assays.
(§5) Mouse brains were resuspended in 10 volumes of 0.4% DEA (diethylamine)/50 mM NaCl pH 10 (for non-transgenic animals) or 0.1% 3-[(3-cholamidopropyl)-dimethyl-ammonio]-1-propanesulfonate (CHAPS) in tris buffered saline (TBS) (for transgenic animals) containing protease inhibitors (Roche-11873580001 or 04693159001) per gram of tissue, e.g. for 0.158 g brain, add 1.58 ml of 0.4% DEA. All samples were sonicated for 30 sec on ice at 20% power output (pulse mode). Homogenates were centrifuged at 221.300×g for 50 min. The resulting high speed supernatants were then transferred to fresh tubes and were optionally further purified before the next step. A portion of the supernatant was neutralized with 10% 0.5 M Tris-HCl and this was used to quantify Aβtotal.
(§6) The obtained supernatants were purified with Water Oasis HLB reverse phase columns (Waters Corp., Milford, Mass.) to remove non-specific immunoreactive material from the brain lysates prior subsequent Aβ detection. Using a vacuum manifold, all solutions were passed through the columns at a rate of approximately 1 ml/min, so the vacuum pressure was adjusted accordingly throughout the procedure. Columns were preconditioned with 1 ml of 100% MeOH, before equilibration with 1 ml of H2O, Non-neutralized brain lysates were loaded onto the columns. The loaded samples were then washed twice with the first wash performed with 1 ml of 5% MeOH, and the second wash with 1 ml of 30% MeOH. Finally, the Aβ was eluted from the columns and into 100×30 mm glass tubes, with a solution of 90% MeOH with 2% NH4OH. […]

Aβ42 [4] = assay: In vivo efficacy: Aβ42 lowering in brain (ELISA); parameters: species or system mouse; details: brain soluble fraction; typical protocol: single oral dose, overnight fasted animals, after four hours
Text: as §2, §3, §4, §5, §6

Aβ42 [5] = assay: Method 2: Aβ42 Alphalisa on supernatant of SKNBE2 cells carrying APP 695 wild type; format: cell-based; details: Homo sapiens, SKNBE2 cells APP 695 wild type, overnight
How it was run: as §1

Aβtotal [6] = assay: Method 1: Aβtotal sandwich ELISA on media of SKNBE2 cells carrying APP 695 wild type; format: cell-based; details: Homo sapiens, SKNBE2 cells APP 695 wild type, 18 hours
How it was run: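 SKNBE2 cells expressing wild-type APP695 treated with compound for 18 h in Ultraculture; secreted Aβtotal measured by 6E10-capture/biotinylated 4G8 sandwich ELISA with fluorogenic peroxidase read-out. IC50 from 4-parameter fit, top/bottom fixed at 100/0, Hill slope 1; toxicity checked by WST-1.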

Aβ42 [7] = assay: Method 1: Aβ42 sandwich ELISA on media of SKNBE2 cells carrying APP 695 wild type (γ-secretase-modulating activity); format: cell-based; details: Homo sapiens, SKNBE2 cells APP 695 wild type, 18 hours
How it was run: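 SKNBE2 cells expressing wild-type APP695 exposed to compounds for 18 h in Ultraculture with 1% glutamine. Secreted Aβ42 in media quantified by sandwich ELISA (C-terminal capture, biotinylated 3D6 detection, TMB, 450 nm). IC50 from 4-parameter fit, top/bottom fixed 100/0, Hill slope fixed 1; toxicity checked by WST-1.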

IC50 (Aβtotal [2]) [µM]	melting point [°C]	IC50 (Aβ42 [5]) [µM]	IC50 (Aβtotal [6]) [µM]	IC50 (Aβ42 [7]) [µM]	Structure (SMILES)	effect on the Notch-processing activity of the γ-secretase-complex (production of NICD) [1]	Aβtotal (% Ctrl) _Mean (Aβtotal [3]) [% Ctrl]	Aβ42 (% Ctrl) _Mean (Aβ42 [4]) [% Ctrl]
–	–	–	–	–	C[C@H](NC(=O)Cc1cc(F)cc(F)c1)C(=O)NC(C(=O)OC(C)(C)C)c1ccccc1 (stereo partly drawn) [DAPT, (2S)-N-[2-(3,5-difluorophenyl)acetyl]-L-alanyl-2-phenyl-glycine 1,1-dimethylethyl ester]	blocked	–	–
> 10	206	0.066	–	–	COc1nc(Nc2cccc3cn(CC(F)(F)F)nc23)ccc1-n1cnc(C)c1 [Compound 54, N-[6-methoxy-5-(4-methyl-1H-imidazol-1-yl)-2-pyridinyl]-2-(2,2,2-trifluoroethyl)-2H-indazol-7-amine]	–	109	72
6.76	–	0.018	> 3	0.023	COc1ccc(C)c(-n2nc3c(Nc4ccc(-c5cnc(C)o5)nc4)cccc3c2C)c1 [Compound 45, 2-(5-methoxy-2-methylphenyl)-3-methyl-N-[6-(2-methyl-5-oxazolyl)-3-pyridinyl]-2H-indazol-7-amine]	did not show an effect	–	–
–	–	–	–	–	CC(C)[C@H](O)C(=O)N[C@@H](C)C(=O)N[C@@H]1C(=O)N(C)CCc2ccccc21 [Semagacestat, (2S)-2-hydroxy-3-methyl-N-[(1S)-1-methyl-2-oxo-2-[[(1S)-2,3,4,5-tetrahydro-3-methyl-2-oxo-1H-3-benzazepin-1-yl]amino]ethyl]-butanamide]	blocked	–	–
